{
  "source": "paper PMC11051924",
  "about": "“Design, Synthesis, and Biological Evaluation of Novel Tetrahydroacridin Hybrids with Sulfur-Inserted Linkers as Potential Multitarget Agents for Alzheimer’s Disease” (Molecules, 2024)",
  "key": {"GSK-3β": {"system": "GSK-3β", "settings": "cited from earlier work"}, "AChE [1]": {"biological_target": "T1, AChE (Electrophorus electricus, UniProt O42275)", "T1 sequence (O42275 24-633)": "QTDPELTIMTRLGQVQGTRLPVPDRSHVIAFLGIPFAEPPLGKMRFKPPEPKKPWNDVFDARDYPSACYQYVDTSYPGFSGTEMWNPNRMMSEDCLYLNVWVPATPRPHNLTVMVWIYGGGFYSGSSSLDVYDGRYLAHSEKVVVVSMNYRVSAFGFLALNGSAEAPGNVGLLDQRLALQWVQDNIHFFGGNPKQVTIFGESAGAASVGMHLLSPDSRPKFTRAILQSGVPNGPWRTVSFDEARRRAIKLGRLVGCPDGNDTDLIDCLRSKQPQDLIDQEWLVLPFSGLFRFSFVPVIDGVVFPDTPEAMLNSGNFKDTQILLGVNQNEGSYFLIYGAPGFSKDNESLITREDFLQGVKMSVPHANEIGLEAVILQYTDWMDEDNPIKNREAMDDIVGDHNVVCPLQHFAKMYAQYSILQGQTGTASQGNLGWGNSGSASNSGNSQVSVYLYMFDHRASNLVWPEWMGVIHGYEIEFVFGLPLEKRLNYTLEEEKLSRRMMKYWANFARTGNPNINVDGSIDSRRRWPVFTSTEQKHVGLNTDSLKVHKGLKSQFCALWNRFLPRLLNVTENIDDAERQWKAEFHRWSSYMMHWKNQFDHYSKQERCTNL", "parameters": "method as in PMID 34024109", "settings": "value of the design leads (abstract, Figure 2); cited from earlier work"}, "AChE [2]": {"biological_target": "T1, AChE", "test": "biochemical", "parameters": "species or system electric eel", "method": "The inhibitory activities of the compounds on AChE were determined by an Ellman assay. First, 20 μL of phosphate buffer was added to a 96-well plate. Then, compounds of different concentrations (20 μL), 100μL of 1mM DTNB, and 40 μL of AChE solution (2 U/mL) were added successively. The plate was incubated at 37 °C for 15 min. Briefly, 20 μL of acetylthiocholine iodide (1 mM) was added to the mixed solution. The plate was incubated at 25 °C for 20 min. The reaction was terminated by adding 3% SDS to each well. […] The inhibition of each compound was calculated using the formula (1 − Ai/Ac) × 100, where Ai and Ac represent the absorbance of the reaction mixture in the presence and absence of inhibitors, respectively. The IC50 values of all target compounds were calculated by using Graph Pad Prism 9.5."}, "recombinant human GSK-3β": {"biological_target": "T2, recombinant human GSK-3β (Homo sapiens, UniProt P49841)", "T2 construct": "purchased", "T2 sequence (P49841 whole entry)": "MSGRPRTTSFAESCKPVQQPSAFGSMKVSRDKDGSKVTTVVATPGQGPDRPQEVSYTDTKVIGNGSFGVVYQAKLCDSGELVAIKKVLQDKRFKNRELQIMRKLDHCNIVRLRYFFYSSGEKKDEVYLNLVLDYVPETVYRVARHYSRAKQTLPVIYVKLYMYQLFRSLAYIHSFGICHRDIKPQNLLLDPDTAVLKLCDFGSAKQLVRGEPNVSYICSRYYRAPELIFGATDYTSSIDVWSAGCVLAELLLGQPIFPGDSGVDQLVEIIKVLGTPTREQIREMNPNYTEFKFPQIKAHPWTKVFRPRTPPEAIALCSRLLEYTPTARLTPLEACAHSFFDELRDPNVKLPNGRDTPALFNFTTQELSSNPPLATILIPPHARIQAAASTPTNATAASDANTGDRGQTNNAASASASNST", "test": "GSK-3β inhibition (luciferin kinase detection)", "assay_type": "biochemical", "method": "Add ATP and substrate polypeptide to the reaction template for GSK-3β under the most suitable enzyme reaction system and conditions, let the enzyme react with ATP and substrate polypeptide, and use luciferin kinase detection technology to detect enzyme activity. All the compounds to be tested were prepared by adding DMSO to a solution with a concentration of 10^−2 mol/L and diluted with PBS to the required concentration when used; the purchased GSK-3β was diluted from 1600 ng/μL to 2 ng/μL, ready for use."}, "AChE [3]": {"biological_target": "T1, AChE", "test": "Kinetic study of AChE inhibition (Lineweaver–Burk)", "assay_type": "biochemical", "settings": "Lineweaver–Burk plots; 0.02, 0.04, 0.08 μM inhibitor", "method": "In 96-well plates, 20μL of PBS, compound 18a (20 μL) with three final concentrations (0.02 μM, 0.04 μM, and 0.08 μM), 20 μL of acetylthiocholine iodide (50–300 μM), and 40 μL of AChE (2 U/mL) were added successively. After incubation at 37 °C for 15 min, 100 μL of DTNB (1 mM) was added. A microplate reader (Thermo, Waltham, MA, USA) was used to record the absorbance at 405 nm. Lineweaver–Burk reciprocal plots were created by graphing 1/V vs. 1/[S] by using GraphPad Prism 9.5."}, "HepG2 cells": {"system": "HepG2 cells", "test": "Hepatotoxicity on HepG2 cells (MTT assay)", "assay_type": "cell-based", "settings": "concentrations of up to 20 μM", "method": "HepG2 cells were cultured in DMEM supplemented with 10% FBS and 100 U/mL of penicillin-streptomycin (Thermo, Waltham, MA, USA) at 37 °C in a humidified atmosphere containing 5% CO2.\nHepG2 cells were seeded in 96-well plates at a density of 2 × 10^4 cells per well. After 24 h, different concentrations of tacrine or compound 18a (1 μM, 5 μM, 10 μM, and 20 μM) and DMSO were added to the wells. MTT assay was performed, and the survival percentage of cells was calculated."}, "[4]": {"system": "SH-SY5Y neuroblastoma cells", "test": "Cytotoxicity on SH-SY5Y cells (MTT assay)", "assay_type": "cell-based, human", "settings": "concentrations of up to 25 μM", "method": "SH-SY5Y cells were cultured in Dulbecco’s modified Eagle medium (DMEM) with F12 (KeyGEN BioTECH, Nanjing, China), supplemented with 10% (v/v) fetal bovine serum (FBS) (Sen Bei Jia) and antibiotics (penicillin streptomycin) (KeyGEN BioTECH, Nanjing, China). Cells were kept at 37 °C and 5% CO2 in a humidified atmosphere in a cell culture incubator and passaged twice a week.\nThe cytotoxicity assay on SH-SY5Y cells was the same as in our previous studies. Cells were seeded in a 96-well plate, and the medium was removed after 24 h. Compound 18a (3.125 μM, 6.25 μM, 12.5 μM, and 25 μM) was added to each well. After treatment for 24 h, 10 μL of 3-(4,5-dimethyl-2-thiazolyl)-2,5-diphenyl-2-H-tetrazolium bromide was added to each well. After incubation at 37 °C for 4 h, 100 μL of DMSO was added, and the absorbance of the mixture was determined at 590 nm using a microplate reader (FC/K3, Thermo, Waltham, MA, USA). We used the formula Ae/Ab 100% to calculate the survival rate, where Ae and Ab represent the absorbance in the presence and absence of the tested drugs. Each experiment was carried out three times in total."}, "[5]": {"settings": "AChE from electric eel, mean of three independent determinations, read-out: IC50 (μM) ± SEM AChE"}, "[6]": {"settings": "recombinant human GSK-3β, mean of three independent determinations, read-out: IC50 (μM) ± SEM GSK-3β"}},
  "note": "Entries after “also recorded” stand apart in the source; their conditions may differ. Read-outs that look alike come from different tables or passages of the source.",
  "data": [
    {"compound": "Cc1nc(-c2ccncc2)cc(=O)[nH]1", "note": "[Compound 5]", "values": [
      {"measurement": "IC50", "setting": "GSK-3β; pyrimidone lead compound 5", "result": 3000, "unit": "nM"}
    ]},
    {"compound": "Cn1c(NCCCCCCCNc2c3c(nc4cc(Cl)ccc24)CCCC3)nc(-c2ccncc2F)cc1=O", "note": "[Compound 7]", "values": [
      {"measurement": "IC50", "setting": "AChE [1]", "result": 51, "unit": "nM"},
      {"measurement": "IC50", "setting": "GSK-3β; previous hybrid compound 7", "result": 89, "unit": "nM"}
    ]},
    {"compound": "Cn1c(SCCNc2c3c(nc4cc(Cl)ccc24)CCCC3)nc(-c2ccncc2)cc1=O", "note": "[Compound 16a, 2-((2-((6-Chloro-1,2,3,4-tetrahydroacridin-9-yl)amino)ethyl)thio)-3-methyl-6-(pyridin-4-yl)pyrimidin-4(3H)-one]", "values": [
      {"measurement": "IC50", "setting": "AChE [2]; [5]", "result": "2.3 ± 0.14", "unit": "µM"},
      {"measurement": "IC50", "setting": "recombinant human GSK-3β; [6]", "result": "15.1 ± 0.9", "unit": "µM"}
    ]},
    {"compound": "Cn1c(SCCNc2c3c(nc4ccc(Br)cc24)CCCC3)nc(-c2ccncc2)cc1=O", "note": "[Compound 16b, 2-((2-((7-Bromo-1,2,3,4-tetrahydroacridin-9-yl)amino)ethyl)thio)-3-methyl-6-(pyridin-4-yl)pyrimidin-4(3H)-one]", "values": [
      {"measurement": "IC50", "setting": "AChE [2]; [5]", "result": "20 ± 1.5", "unit": "µM"},
      {"measurement": "IC50", "setting": "recombinant human GSK-3β; [6]", "result": "38.5 ± 0.7", "unit": "µM"}
    ]},
    {"compound": "Cn1c(SCCNc2c3c(nc4ccc(Cl)cc24)CCCC3)nc(-c2ccncc2)cc1=O", "note": "[Compound 16c, 2-((2-((7-Chloro-1,2,3,4-tetrahydroacridin-9-yl)amino)ethyl)thio)-3-methyl-6-(pyridin-4-yl)pyrimidin-4(3H)-one]", "values": [
      {"measurement": "IC50", "setting": "AChE [2]; [5]", "result": "10.3 ± 0.7", "unit": "µM"},
      {"measurement": "IC50", "setting": "recombinant human GSK-3β; [6]", "result": "2.28 ± 0.07", "unit": "µM"}
    ]},
    {"compound": "Cn1c(SCCNc2c3c(nc4cc(Cl)ccc24)CCCC3)nc(-c2ccncc2F)cc1=O", "note": "[Compound 16d, 2-((2-((6-Chloro-1,2,3,4-tetrahydroacridin-9-yl)amino)ethyl)thio)-6-(3-fluoropyridin-4-yl)-3-methylpyrimidin-4(3H)-one]", "values": [
      {"measurement": "IC50", "setting": "AChE [2]; [5]", "result": "1.89 ± 0.21", "unit": "µM"},
      {"measurement": "IC50", "setting": "recombinant human GSK-3β; [6]", "result": "1.69 ± 0.09", "unit": "µM"}
    ]},
    {"compound": "Cn1c(SCCNc2c3c(nc4ccc(Br)cc24)CCCC3)nc(-c2ccncc2F)cc1=O", "note": "[Compound 16e, 2-((2-((7-Bromo-1,2,3,4-tetrahydroacridin-9-yl)amino)ethyl)thio)-6-(3-fluoropyridin-4-yl)-3-methylpyrimidin-4(3H)-one]", "values": [
      {"measurement": "IC50", "setting": "AChE [2]; [5]", "result": "15.3 ± 0.9", "unit": "µM"},
      {"measurement": "IC50", "setting": "recombinant human GSK-3β; [6]", "result": "0.94 ± 0.02", "unit": "µM"}
    ]},
    {"compound": "Cn1c(SCCNc2c3c(nc4ccc(Cl)cc24)CCCC3)nc(-c2ccncc2F)cc1=O", "note": "[Compound 16f, 2-((2-((7-Chloro-1,2,3,4-tetrahydroacridin-9-yl)amino)ethyl)thio)-6-(3-fluoropyridin-4-yl)-3-methylpyrimidin-4(3H)-one]", "values": [
      {"measurement": "IC50", "setting": "AChE [2]", "result": "16.5 ± 0.8", "unit": "µM"},
      {"measurement": "IC50", "setting": "recombinant human GSK-3β", "result": "2.44 ± 0.06", "unit": "µM"}
    ]},
    {"compound": "Cn1c(NCCSSCCNc2c3c(nc4cc(Cl)ccc24)CCCC3)nc(-c2ccncc2)cc1=O", "note": "[Compound 18a, 2-((2-((2-((6-Chloro-1,2,3,4-tetrahydroacridin-9-yl)amino)ethyl)disulfanyl)ethyl)amino)-3-methyl-6-(pyridin-4-yl)pyrimidin-4(3H)-one]", "values": [
      {"measurement": "IC50", "setting": "AChE [2]; [5]", "result": "0.047 ± 0.002", "unit": "µM"},
      {"measurement": "IC50", "setting": "recombinant human GSK-3β; [6]", "result": "0.93 ± 0.08", "unit": "µM"},
      {"measurement": "inhibition mode against AChE", "setting": "AChE [3]", "result": "mixed type"},
      {"measurement": "hepatotoxicity on HepG2 cells", "setting": "HepG2 cells", "result": "no significant hepatotoxicity"},
      {"measurement": "toxicity to SH-SY5Y neuroblastoma cells", "setting": "[4]", "result": "lack of toxicity; also recorded: no toxicity"}
    ]},
    {"compound": "Cn1c(NCCSSCCNc2c3c(nc4ccc(Br)cc24)CCCC3)nc(-c2ccncc2)cc1=O", "note": "[Compound 18b, 2-((2-((2-((7-Bromo-1,2,3,4-tetrahydroacridin-9-yl)amino)ethyl)disulfanyl)ethyl)amino)-3-methyl-6-(pyridin-4-yl)pyrimidin-4(3H)-one]", "values": [
      {"measurement": "IC50", "setting": "AChE [2]; [5]", "result": "2.13 ± 0.11", "unit": "µM"},
      {"measurement": "IC50", "setting": "recombinant human GSK-3β; [6]", "result": "0.37 ± 0.02", "unit": "µM"}
    ]},
    {"compound": "Cn1c(NCCSSCCNc2c3c(nc4ccc(Cl)cc24)CCCC3)nc(-c2ccncc2)cc1=O", "note": "[Compound 18c, 2-((2-((2-((7-Chloro-1,2,3,4-tetrahydroacridin-9-yl)amino)ethyl)disulfanyl)ethyl)amino)-3-methyl-6-(pyridin-4-yl)pyrimidin-4(3H)-one]", "values": [
      {"measurement": "IC50", "setting": "AChE [2]; [5]", "result": "2.24 ± 0.13", "unit": "µM"},
      {"measurement": "IC50", "setting": "recombinant human GSK-3β; [6]", "result": "0.42 ± 0.03", "unit": "µM"}
    ]}
  ]
}
